Reference: patent publication US8129423B2, “Imidazolone and imidazoloidinone derivatives as 11b-HSD1 inhibitors” (Hoffman-La Roche Inc., priority 2006, dated 2012)

Columns and labels:
11beta-HSD1 [1] = biological target: T1, 11beta-HSD1 (Homo sapiens, UniProt P28845); test: Microsome assay: cortisone to cortisol conversion, ELISA-based cortisol detection; assay type: biochemical; design: made in house; host or cells: HEK293 cells (ATCC CRL-1573), transient transfection with lipofectamine; microsomal fraction; conditions: microsomes from HEK293 cells transiently expressing human 11beta-HSD1; cortisone 50-200 nM, NADPH 1 mM, 60 min, 37° C.; read-out: h 11-beta-HSD 1 IC50
T1 sequence (P28845 whole entry): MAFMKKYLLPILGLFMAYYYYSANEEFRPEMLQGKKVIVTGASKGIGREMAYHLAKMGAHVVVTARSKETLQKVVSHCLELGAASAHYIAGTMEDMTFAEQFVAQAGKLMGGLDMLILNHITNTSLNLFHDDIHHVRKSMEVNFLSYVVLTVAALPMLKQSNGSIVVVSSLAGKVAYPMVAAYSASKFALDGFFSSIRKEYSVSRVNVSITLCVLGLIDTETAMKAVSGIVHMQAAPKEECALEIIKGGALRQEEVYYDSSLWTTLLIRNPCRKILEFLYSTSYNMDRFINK
Description: The cDNA encoding the human 11beta-HSD1 protein was cloned into the expression vector pcDNA3 ([…]). This construct (for details see Alex Odermatt et al.; J Biol. Chem., 1999, Vol. 274, Issue 40, 28762-28770) was used to transiently express the protein in HEK293 cells (ATCC number: CRL-1573, described in Graham, F. L., Smiley, J., Russell, W. C., Nairn, R.; (1977)) using lipofectamine. 48 h after transfection cells were washed twice with ice-cold PBS (Phsophate buffered Saline). To 1 volume of cell suspension in PBS 2 volumes of ice-cold lysis buffer (50 mM Tris; pH7.5; 1 mM EDTA; 100 mM NaCl) were added. The cells were lysed by Potter-homogenization (20 strokes). The resulting homogenate was sonicated with a tip sonicator (10% output; 2×30 sec.) and cleared by a low speed centrifugation (10 min×9000 g; 4° C.). The microsomal fraction was collected by a high speed centrifugation (60 min×110,000 g). The resulting pellet was resuspended in storage buffer (20 mM Tris pH 7.5; 1 mM EDTA; 10% Glycerol) and the centrifugation was repeated. The resulting pellet containing the microsomal fraction was again taken up into storage buffer and aliquots were kept frozen in liquid Nitrogen until use.
Microsomes isolated from HEK293 cells transiently expressing human 11beta-HSD1 (for details see above) were incubated in assay buffer (100 mM NaCl; 1 mM EDTA; 1 mM EGTA; 1 mM MgCl; 250 mM Sucrose; 20 mM Tris pH 7.4; Cortisone 50-200 nM and NADPH 1 mM) together with different concentrations of test substances. After 60 min. of incubation at 37° C. the assay was stopped by heating to 80° C. (5 min.) and by addition of the inhibitor Carbenoxolone (1 uM). The amount of Cortisol produced in this assay was determined using a commercially available, ELISA-based Cortisol-detection kit (Distributed by Assay Design, Inc.). Inhibitors were characterized by their IC50 values, e.g. the concentration at which the production of cortisol was 50% reduced.

11beta-HSD1 [2] = biological target: T1, 11beta-HSD1; design: host or cells: in vivo treatment of human subjects; conditions: in man, treatment with carbenoxolone; cited from earlier work

Row | Compound | IC50 (11beta-HSD1 [1]) [nM] | insulin sensitivity (11beta-HSD1 [2])
1 | O=c1[nH]c(CC(F)(F)F)cn1C1C2CC3CC(C2)CC1C3 (stereo not shown) [Example 16, 1-Adamantan-2-yl-4-(2,2,2-trifluoro-ethyl)-1,3-dihydro-imidazol-2-one] | 39 | –
2 | CC(C)Cc1cn(-c2ccccc2OC(F)(F)F)c(=O)n1CC1CC1 [Example 45, 3-Cyclopropylmethyl-4-isobutyl-1-(2-trifluoromethoxy-phenyl)-1,3-dihydro-imidazol-2-one] | 192 | –
3 | CC1(C2CC2)CN(C2C3CC4CC2CC(O)(C4)C3)C(=O)N1C1CC1 (stereo not shown) [Example 80, 3,4-Dicyclopropyl-1-[(E)-5-hydroxy-adamantan-2-yl]-4-methyl-imidazolidin-2-one] | 3 | –
4 | CC1(C)[C@@H](OC(=O)CCC(=O)O)CC[C@]2(C)[C@H]3C(=O)C=C4[C@@H]5C[C@@](C)(C(=O)O)CC[C@]5(C)CC[C@@]4(C)[C@]3(C)CC[C@@H]12 [carbenoxolone] | – | increase in insulin sensitivity
